The source of these data is article PMC4319531 (Bioorganic & medicinal chemistry letters, 2014).

Series [1] can be described thus: Metabolic stability in human intestinal microsomes. The note with it: both, pooled human intestinal microsomes, pH 7.4.
In series [2] the target is T1, recombinant CE-1 (Homo sapiens, UniProt P23141).
T1 sequence (P23141 18-567): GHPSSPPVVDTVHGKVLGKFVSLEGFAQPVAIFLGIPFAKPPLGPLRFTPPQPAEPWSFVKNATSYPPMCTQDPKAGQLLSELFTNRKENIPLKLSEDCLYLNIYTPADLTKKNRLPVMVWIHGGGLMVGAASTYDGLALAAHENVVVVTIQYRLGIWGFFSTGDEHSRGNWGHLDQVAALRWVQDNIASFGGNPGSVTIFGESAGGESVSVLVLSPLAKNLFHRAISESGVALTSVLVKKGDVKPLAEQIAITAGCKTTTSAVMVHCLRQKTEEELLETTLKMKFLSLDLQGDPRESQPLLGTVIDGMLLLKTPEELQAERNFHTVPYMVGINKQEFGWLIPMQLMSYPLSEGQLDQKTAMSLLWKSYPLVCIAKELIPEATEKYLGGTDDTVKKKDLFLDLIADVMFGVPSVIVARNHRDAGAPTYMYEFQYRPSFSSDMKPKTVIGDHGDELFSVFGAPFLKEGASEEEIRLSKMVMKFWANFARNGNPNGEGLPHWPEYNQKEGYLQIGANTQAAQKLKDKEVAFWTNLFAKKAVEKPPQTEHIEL
Put plainly: Incubation with purified recombinant CE-1. Format: in vitro ADME. The conditions noted are these: 10 μM, within 60 minutes at room temperature.

Series [3] addresses T2, recombinant CE-2 (Homo sapiens, UniProt O00748).
T2 sequence (O00748 27-559): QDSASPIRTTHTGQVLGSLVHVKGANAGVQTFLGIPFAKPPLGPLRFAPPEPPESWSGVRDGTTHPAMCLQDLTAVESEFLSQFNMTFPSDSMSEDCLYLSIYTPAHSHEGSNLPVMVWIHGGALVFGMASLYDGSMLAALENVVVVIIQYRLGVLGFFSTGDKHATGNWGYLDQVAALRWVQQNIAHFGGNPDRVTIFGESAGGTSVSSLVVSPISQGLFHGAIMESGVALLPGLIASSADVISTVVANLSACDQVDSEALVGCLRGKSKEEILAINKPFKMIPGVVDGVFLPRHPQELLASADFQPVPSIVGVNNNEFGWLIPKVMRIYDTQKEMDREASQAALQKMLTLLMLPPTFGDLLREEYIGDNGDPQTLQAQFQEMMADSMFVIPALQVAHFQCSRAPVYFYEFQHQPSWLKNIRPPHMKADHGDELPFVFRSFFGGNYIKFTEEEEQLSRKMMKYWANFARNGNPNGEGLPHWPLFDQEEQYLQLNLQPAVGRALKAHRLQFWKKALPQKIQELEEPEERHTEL
Nature of the series: Incubation with purified recombinant CE-2. It counts as in vitro ADME. The conditions noted are these: 10 μM, within 60 minutes at room temperature.

A short description of series [4]: Metabolic stability in human liver microsomes. The conditions noted are these: both, pooled human liver microsomes, pH 7.4. In general terms: Liver microsomes are a subcellular fraction often used to study metabolism.
The conditions of series [5]: microsomes.

Take `COC(=O)NCCCC(C)(C)C(=O)Oc1ccc(Oc2ccc(CN(Cc3ccccc3)c3cccc(NS(C)(=O)=O)c3C)cc2)cc1` [Compound 8e, 4-(4-((benzyl(2-methyl-3-(methylsulfonamido)phenyl)amino)methyl)phenoxy)phenyl 5-((methoxycarbonyl)amino)-2,2-dimethylpentanoate]: the intrinsic clearance (microsomal CLint) (as a rule, the rate of metabolic loss divided by the concentration) at 1 μM in series [1] came to 1000 µL/min/mg.

As to `COC(=O)NCCCC(C)(Cc1ccccc1)C(=O)Oc1ccc(Oc2ccc(CN(Cc3ccccc3)c3cccc(NS(C)(=O)=O)c3C)cc2)cc1` (stereo not drawn) [Compound 8f], in series [2], the “sensitivity to hydrolysis by recombinant CE-1” value is “completely resistant”. Besides, the “sensitivity to hydrolysis by recombinant CE-2” value in series [3] is on record as “moderate to extensive hydrolysis”. In addition, the intrinsic metabolic clearance (microsomal CLint) at 1 μM in series [1] is 43 µL/min/mg.

In the case of `COC(=O)NCCCC(Cc1ccccc1)C(=O)Oc1ccc(Oc2ccc(CN(Cc3ccccc3)c3cccc(NS(C)(=O)=O)c3C)cc2)cc1` (stereo not drawn) [Compound 8d], the microsomal CLint at 1 μM in series [1] amounted to 140 µL/min/mg.

On to `COC(=O)NCCCC(Cc1cn(Cc2ccccc2)nn1)C(=O)Oc1ccc(Oc2ccc(CN(Cc3ccccc3)c3cccc(NS(C)(=O)=O)c3C)cc2)cc1` (stereo not drawn) [Compound 8g, 4-(4-((benzyl(2-methyl-3-(methylsulfonamido)phenyl)amino)methyl)phenoxy)phenyl 2-((1-benzyl-1H-1,2,3-triazol-4-yl)methyl)-5-((methoxycarbonyl)amino)pentanoate], for which, in series [2], the “sensitivity to hydrolysis by recombinant CE-1” value was “completely resistant”. Further, in series [3], the “sensitivity to hydrolysis by recombinant CE-2” value was “moderate to extensive hydrolysis”. Also, the microsomal CLint at 1 μM amounted to 140 µL/min/mg in series [4] and 480 µL/min/mg in series [1].

Consider `C#CCC(CCCNC(=O)OC)C(=O)Oc1ccc(Oc2ccc(CN(Cc3ccccc3)c3cccc(NS(C)(=O)=O)c3C)cc2)cc1` (stereo not drawn) [Compound 8c], for which the microsomal CLint at 1 μM in series [1] amounted to 1700 µL/min/mg.

Turning to `C#CCC(CCCNC(=O)OC)C(=O)OCCOc1ccc(Oc2ccc(CN(Cc3ccccc3)c3cccc(NS(C)(=O)=O)c3C)cc2)cc1` (stereo not drawn) [Compound 9c], the “sensitivity to hydrolysis by recombinant CE-1” value in series [2] was “completely resistant”. Also, in series [3], the “sensitivity to hydrolysis by recombinant CE-2” value is “moderate to extensive hydrolysis”. In addition, the microsomal CLint at 1 μM in series [1] worked out at 1900 µL/min/mg.

As to “2-(4-(4((benzyl(2methyl3(methylsulfonamido)phenyl)amino)methyl)phenoxy)phenoxy)ethyl 2-isobutyl-5-((methoxycarbonyl)amino)pentanoate [Compound 8b]”, the “half life (t1/2, min) HLM” value in series [5] (human, pH 7.4) came out at 17 min. Further, in series [5], the “CLint, in vitro HLM” value amounted to 82 µL/min/mg. The “CLint, in vitro HIM” value (microsomes) was determined as 220 µL/min/mg. For the setting “pH 7.4”, the “half life (t1/2, min) HIM” value is on record as 6.3 min.

Take `COC(=O)NCCCC(C)C(=O)Oc1ccc(Oc2ccc(CN(Cc3ccccc3)c3cccc(NS(C)(=O)=O)c3C)cc2)cc1` (stereo not drawn) [Compound 8a, 4-(4-((benzyl(2-methyl-3-(methylsulfonamido)phenyl)amino)methyl)phenoxy)phenyl 5-((methoxycarbonyl)amino)-2-methylpentanoate]: the values for the microsomal CLint at 1 μM in series [4] and in series [1] were 1000 µL/min/mg and 2600 µL/min/mg, respectively.

For `COC(=O)NCCCC(Cc1cn(Cc2ccccc2)nn1)C(=O)OCCOc1ccc(Oc2ccc(CN(Cc3ccccc3)c3cccc(NS(C)(=O)=O)c3C)cc2)cc1` (stereo not drawn) [Compound 9g], in series [2], the “sensitivity to hydrolysis by recombinant CE-1” value is given as “completely resistant”. Further, the “sensitivity to hydrolysis by recombinant CE-2” value in series [3] is given as “moderate to extensive hydrolysis”.
